Source: patent US20070111258A1, “Compositions and methods for modulating the acute phase response” (priority 2005, published 2007)

How the values were obtained:
CRP = test: Serum CRP in CREBH knockdown and control RNAi mice (ELISA); type: in vivo, mouse; details: 24 hours after injection
Description: (§1) (A) Identification of CREBH knockdown mice by Northern blot analysis. Transgenic mice with empty vector lentivirus expressing GFP were used as controls. Total RNAs (15 μg/lane) were isolated from the livers of the CREBH RNAi or the control mice, and subjected to Northern blot analysis. A 260 bp GFP cDNA fragment and a 210 bp mouse CREBH cDNA fragment were used as probes for detecting levels of GFP mRNA and CREBH mRNA, respectively. Levels of ββ-actin mRNA were determined for control of sample loading. (B) Morphology of CREBH knockdown embryos. The embryos were collected at gestation stage E14.5. The paraffin-embedded embryo sections were stained with hematoxylin and eosin. Magnification: 20 X. (C) Northern blot analysis of levels of CREBH, CRP and SAP mRNA in the livers of the CREBH knockdown or the control mice. Levels of β-actin mRNA were determined for sample loading controls. (D-E) Serum levels of SAP and CRP in the CREBH knockdown and the siRNA control mice in response to IL6 plus IL1β LPS or Tm. CREBH knockdown and RNAi control mice at 3-months of age were challenged with recombinant mouse IL6 (25 ng/gram body weight) plus recombinant mouse IL1β (25 ng/gram body weight), LPS (3 μg/gram body weight) or Tm (2 mg/kg body weight). Serum levels of SAP and CRP in the mice were determined before injection and at 24 hours after IL6 plus IL1β, LPS or Tm injection. […]

CREBH = test: Cleavage of flag-tagged CREBH in transfected wild-type CHO cells (nuclear fraction Western blot); type: cell-based, Chinese hamster; details: Tm 5 μg/ml 10 hours
Description: FIG. 5 depicts the cleavage of CREBH by proteases S1P and S2P upon ER stress. (A) CREBH is cleaved by S1P-KDEL, but not S1P-KDAS. COS7 cells were co-transfected with a construct expressing flag-tagged full-length CREBH and a construct expressing S1P-KDAS or S1P-KDEL. CREBH construct DNA (1 μg) was mixed with S1P-KDEL or S1P-KDAS construct DNA (1 or 2 μg as indicated) for transfection of cells in one well of a 6-well plate. COS7 cells expressing full-length CREBH were also cultured in the absence or presence of 0.5 μM BFA for 8 hours. COS7 cells expressing CREBH-ΔC, the cytosolic/nuclear form of CREBH, were included as a positive control. Expression and cleavage of CREBH were detected by Western blot analysis using an anti-flag antibody. (B) Cleavage of CREBH in wild-type (K1), S2P-deficient (M19), and […] CHO cells. […]
For analysis of expression and cleavage of CREBH protein, total cell lysates were prepared from H2.35 cells or COS7 cells using Nonidet P-40 lysis buffer (1% NP-40, 50 mM Tris-HCl at pH 7.5, 150 mM NaCl, 0.05% SDS) supplemented with protease inhibitors (Complete Mini from Roche Applied Science), 0.1 mM sodium vanadate, and 1 mM sodium fluoride. […] The total cell lysate, membrane and nuclear fractions were subjected to SDS-PAGE and then analyzed by Western blot using anti-flag monoclonal antibody or other antibodies. […]

SAP = test: Serum SAP in CREBH knockdown and control RNAi mice (ELISA); type: in vivo, mouse; details: Tm 2 μg/gram body weight i.p., 24 hours
Description: as §1

Question: How did the “increase of serum levels of CRP” value (CRP; control RNAi mice) turn out when tunicamycin [Tm] was run?
Answer: The value was “approximately 2 fold”.

Question: And the “increase of serum levels of CRP” value (CRP; treated CREBH knockdown mice)?
Answer: The value was “no such increase”.

Question: And the “increase of the nuclear form of CREBH” value (CREBH)?
Answer: The value was “approximately 6 fold”.

Question: What about the “increase of serum SAP” value (SAP; CREBH knockdown mice) of the same substance?
Answer: The value was “approximately 2 fold”.

Question: What about the “increase of serum levels of SAP” value (SAP; control mice) of the same substance?
Answer: The value was “approximately 12 fold”.
